The values below come from patent publication US20080076751A1, “Azetidinone Derivatives and Methods of Use Thereof” (priority 2006, published 2008).

Assay [1] has as its target T1, TRPV1 (VR1) (Rattus norvegicus, UniProt O35433).
T1 construct: expressed in transfected cells; host or cells: HEK293-TetOFF, expression induced by withdrawing doxycycline
As to the kind of experiment: TRPV1 screening assay (FLIPR, Fluo-4 calcium), capsaicin stimulation. It counts as cell-based. The conditions noted are these: FLIPR, HEK293-TetOFF-TRPV1, capsaicin 50 nM final; read-out: VR1 flipr CAPSAICIN IC50. The text has this:
(§1) • 1) Cell line: HEK293-Tet^OFF-TRPV1 • 2) Media: MEM (Invitrogen) • 3) 10% Tet-FBS (Clontech #8630-1) • 4) Fungizone (Gibe #15290-018 (100X)) • 5) Penn/Strep (Gibco #15140-122 (100X)) • 6) Geneticin (Gibco #10131-027 (100X)) • 7) Hygromycin (Clontech #8057-1) • 8) Doxycycline (Clontech #8634-1) • 9) Trypsin/EDTA (Gibco #25200-056) • 10) 100 mm cell culture plates (Falcon #3003) • 11) 96-well poly-D-lysine plates (Fisher #08-774-256) • 12) Hank's Balanced Salt Solution (HBSS) (GIBCO #14025-092) • 13) HEPES Buffer (GIBCO #15630-080) • 14) 30% BSA (Research Organics #1334A) • 15) Probenecid (Sigma P-8761) • 16) Fluo-4, AM (50 μg) (Molecular Probes F-23917) • 17) Pluronic F-127 20% (Molecular Probes P-3000). • 18) capsazepine (Sigma C-191) • 19) capsaicin (Sigma M-2028) • 20) compound plates (NUNC #442587) • 21) black pipet tips 96-well FLIPR (Robbins Scientific 1043-24-0) • 22) Additional reagents available from Fisher: methanol, DMSO, NaOH Reagent Preparation: 1) Cells: HEK293-Tet^OFF-TRPV11
(§2) • and Doxycycline 2.5 μg/mL final (from a 1000× stock in PBS) • Cells must be fed and/or split every 2-3 days (to maintain transcriptional repression with Doxycycline). • Must be split no more than 1:5 (50-75% confluency) to maintain growth and viability. • Grown on regular tissue culture plates (e.g Falcon 3003-100 mm) • Split cells via Trypsin/EDTA: incubate with trypsin at room temperature no longer than 5 minutes (HEK293 cells have a tendency to ball up if over trypsinized). • Two days prior to assay, the cells are split into 96-well plates in cell media in the absence of doxycycline at a concentration of 40,000 cells/well in a volume of 200 μL. 2) FLIPR buffer is prepared fresh:
Add 5 mL of Probenecid Solution, prepared as follows: 710 mg of probenecid (Sigma P-8761) is solubilized in 5 mL of 1N NaOH, 5 mL of above buffer is added for final volume of 10 mL. (of which 5 mL goes back into FLIPR buffer)
Combine 42 μL of dye mixture with 11 mL of FLIPR buffer/96-well plate.
Stock solution of 0.1 M capsaicin is prepared in MeOH (50 mg+1.6 mL MeOH). Store 50 μL aliquots at −80° C.
(§3) For assay: • a) Dilute stock by adding 0.8 μL into 1 mL of MeOH (final=80 uM). • b) Add 50 μL of diluted stock to 20 mL of FLIPR buffer (final=0.2 uM) • c) Agonist solution is added 150 μL/well to 96-well plate. • d) Final agonist concentration on cells will be 50 nM. […] Laser is adjusted upwards for an average signal≧10,000/well and less than 10% variability. 7) Compound addition conditions are as follows: • FLIPR setup (dual sequence parameters): • Sequence 1: • First interval 1 sec/60 counts • Second interval 6 sec/50 counts • Fluid addition=50 μL • Pipettor height 110 μL • Dispense Speed=30 μL/sec • Sequence 2: • Second interval 1 sec/60 counts • Second interval 6 sec/40 counts • Fluid addition=50 μL • Pipettor height=140 μL • Dispense Speed=50 μL/sec Data Analysis: • 1) Data from both additions is reported as Max-Min for each well

Assay [2] deals with T1, TRPV1 (VR1). The assay is described as follows: TRPV1 screening assay (FLIPR, Fluo-4 calcium), PMA stimulation. To be noted: HEK293-TetOFF-TRPV1, PMA. It is filed as cell-based. As for the experimental part: 2) FLIPR buffer is prepared fresh:
as §3

A further assay deals with NPC1L1 (Rattus norvegicus, UniProt Q6T3U3). As to the kind of experiment: NPC1L1 binding assay (BODIPY-labeled glucuronidated ezetimibe competition), rat.
In the next assay the target is T2, human NPC1L1 (Homo sapiens, UniProt Q9UHC9).
T2 construct: expressed in transfected cells; host or cells: HEK-293 (geneticin selection)
T2 sequence (Q9UHC9 22-1359): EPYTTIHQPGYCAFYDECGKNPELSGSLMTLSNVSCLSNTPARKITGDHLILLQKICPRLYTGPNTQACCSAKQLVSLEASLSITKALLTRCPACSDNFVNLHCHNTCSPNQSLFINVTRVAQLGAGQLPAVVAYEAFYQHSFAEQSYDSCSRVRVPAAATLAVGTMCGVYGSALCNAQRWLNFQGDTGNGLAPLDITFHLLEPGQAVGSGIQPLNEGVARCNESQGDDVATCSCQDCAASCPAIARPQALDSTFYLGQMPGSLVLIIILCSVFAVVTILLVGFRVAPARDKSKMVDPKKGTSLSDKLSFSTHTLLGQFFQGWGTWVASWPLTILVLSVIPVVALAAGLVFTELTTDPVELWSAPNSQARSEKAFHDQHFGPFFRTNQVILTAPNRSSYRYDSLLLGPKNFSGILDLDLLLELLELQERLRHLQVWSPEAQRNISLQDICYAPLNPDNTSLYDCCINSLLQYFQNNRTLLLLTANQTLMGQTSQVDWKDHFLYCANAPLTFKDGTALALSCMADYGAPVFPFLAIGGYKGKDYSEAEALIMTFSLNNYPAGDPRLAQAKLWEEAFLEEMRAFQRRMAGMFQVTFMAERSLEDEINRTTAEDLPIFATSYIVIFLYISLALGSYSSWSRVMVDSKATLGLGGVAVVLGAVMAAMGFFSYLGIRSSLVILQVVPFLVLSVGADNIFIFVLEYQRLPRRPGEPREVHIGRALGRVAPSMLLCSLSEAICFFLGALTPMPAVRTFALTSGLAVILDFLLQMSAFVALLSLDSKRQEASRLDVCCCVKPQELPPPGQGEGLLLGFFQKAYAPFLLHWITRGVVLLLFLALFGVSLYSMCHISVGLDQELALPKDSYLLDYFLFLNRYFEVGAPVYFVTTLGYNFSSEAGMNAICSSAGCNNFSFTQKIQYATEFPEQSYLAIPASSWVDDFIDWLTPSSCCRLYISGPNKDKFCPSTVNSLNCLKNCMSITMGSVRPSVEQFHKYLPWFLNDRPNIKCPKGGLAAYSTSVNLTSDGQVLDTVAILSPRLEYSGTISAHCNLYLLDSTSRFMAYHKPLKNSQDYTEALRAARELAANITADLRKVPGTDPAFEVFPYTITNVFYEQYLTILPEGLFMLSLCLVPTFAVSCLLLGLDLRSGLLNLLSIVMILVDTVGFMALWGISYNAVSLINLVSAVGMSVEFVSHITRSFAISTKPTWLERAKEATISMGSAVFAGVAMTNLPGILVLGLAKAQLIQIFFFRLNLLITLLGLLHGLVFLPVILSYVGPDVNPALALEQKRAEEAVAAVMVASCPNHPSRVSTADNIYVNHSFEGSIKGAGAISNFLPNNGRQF
As to the kind of experiment: NPC1L1 binding assay (BODIPY-labeled glucuronidated ezetimibe competition), human. The conditions noted are these: HEK-293 cells expressing human NPC1L1, 4 hours at 37° C. As for the experimental part:
HEK-293 cells expressing human NPC1L1 were plated into 384-well black/clear plates (BD Biosciences, Bedford Mass.) for binding experiments the following day. Cell growth media (DMEM, 10% fetal calf serum, 1 mg/mL geneticin, 100 Units/mL penicillin) was aspirated. Cell growth media ([…]) containing 250 nM BODIPY-labeled glucuronidated ezetimibe was added to each well. Cell growth media ([…]) containing the indicated concentration of compound was then added to the wells. Unlabeled glucuronidated ezetimibe ([…]) was used to determine nonspecific binding. The binding reaction was allowed to proceed for 4 hours at 37° C. Subsequently the cell growth media was aspirated and the cells washed once with PBS. The remaining fluorescent labeled glucuronidated ezetimibe bound to the cells was quantified using a FlexStation plate reader (Molecular Devices, Sunnyvale Calif.) to measure fluorescence intensity. Ki values were determined from competition binding curves (n=4 for each point) using Prism and Activity Base software.

Another assay addresses T3, rat VR1 (Rattus norvegicus, UniProt O35433).
T3 construct: expressed in transfected cells; host or cells: HEK293-TetOFF
As to the kind of experiment: TRPV1 screening assay (FLIPR), rat VR1 % activation at single concentration. It is filed as cell-based.
Excerpt: as §1, §2
For assay: • a) Dilute stock by adding 0.8 μL into 1 mL of MeOH (final=80 uM). • b) Add 50 μL of diluted stock to 20 mL of FLIPR buffer (final=0.2 uM) • c) Agonist solution is added 150 μL/well to 96-well plate. • d) Final agonist concentration on cells will be 50 nM. (˜EC80) 6) Compound Plate preparation: • a) Compound plate is filled with 150 μL/well of FLIPR buffer • b) 3 μL of compound mixtures (1 mg/mL) is added to each well (represents a 3× solution and final DMSO=0.67%) Assay Procedure: • 1) Media is removed from cells grown in 96-well dishes. • 2) 100 μL of Fluo-4 containing FLIPR buffer in pipetted into each well. • 3) Plates are incubated for 30-60 minutes at 37° C. in 5% CO2 incubator. • 4) Plates are then washed three times with 100 μL of FLIPR buffer. • 5) 100 μL of FLIPR buffer is left in each well and plate is incubated at 37° C. for at least 20 minutes. • 6) Signal of dye-labeled plate is initially determined using laser at 0.300 W with an exposure time of 0.4 seconds. Laser is adjusted upwards for an average signal≧10,000/well and less than 10% variability. 7) Compound addition conditions are as follows: • FLIPR setup (dual sequence parameters): • Sequence 1: • First interval 1 sec/60 counts • Second interval 6 sec/50 counts • Fluid addition=50 μL • Pipettor height 110 μL • Dispense Speed=30 μL/sec • Sequence 2: • Second interval 1 sec/60 counts • Second interval 6 sec/40 counts • Fluid addition=50 μL • Pipettor height=140 μL • Dispense Speed=50 μL/sec Data Analysis: • 1) Data from both additions is reported as Max-Min for each well

T1 sequence (O35433 whole entry): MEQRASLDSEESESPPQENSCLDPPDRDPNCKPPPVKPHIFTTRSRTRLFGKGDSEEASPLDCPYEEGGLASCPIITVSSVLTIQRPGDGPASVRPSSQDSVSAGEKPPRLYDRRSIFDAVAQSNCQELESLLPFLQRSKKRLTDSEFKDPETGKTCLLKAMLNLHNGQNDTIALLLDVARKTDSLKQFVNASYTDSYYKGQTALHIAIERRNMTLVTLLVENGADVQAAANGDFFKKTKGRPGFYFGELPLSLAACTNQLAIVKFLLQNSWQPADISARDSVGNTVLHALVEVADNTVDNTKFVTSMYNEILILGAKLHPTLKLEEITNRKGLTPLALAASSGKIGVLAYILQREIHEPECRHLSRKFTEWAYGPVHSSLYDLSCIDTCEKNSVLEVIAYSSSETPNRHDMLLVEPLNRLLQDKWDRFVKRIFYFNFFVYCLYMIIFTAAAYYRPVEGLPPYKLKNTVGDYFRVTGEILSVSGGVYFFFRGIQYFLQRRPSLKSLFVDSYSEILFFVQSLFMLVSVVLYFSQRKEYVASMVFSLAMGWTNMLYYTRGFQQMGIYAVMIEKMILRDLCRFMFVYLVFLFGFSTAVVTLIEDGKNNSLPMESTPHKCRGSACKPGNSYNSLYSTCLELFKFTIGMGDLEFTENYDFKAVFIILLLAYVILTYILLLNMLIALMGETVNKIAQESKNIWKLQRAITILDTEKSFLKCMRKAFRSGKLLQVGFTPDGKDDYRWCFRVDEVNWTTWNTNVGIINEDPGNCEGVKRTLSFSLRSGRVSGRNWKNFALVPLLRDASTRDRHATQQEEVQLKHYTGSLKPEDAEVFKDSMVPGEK
T3 sequence (O35433 whole entry): as above

What is called IC50 is the concentration at which inhibition is half-maximal. On to `O=C(Nc1ccc(C(F)(F)F)cc1)N1CCC2(CC1)C(=O)N(c1ccccn1)C2c1ccccc1` (centres unmarked), for which the IC50 at TRPV1 (VR1) [1] was 20 nM; at TRPV1 (VR1) [2], 16 nM.
For `CC(C)(C)c1ccc(NC(=O)N2CCC3(CC2)CN(c2ccccc2)C3=O)cc1` the same measures were 80 nM and 59 nM.
For `CCC(C)c1ccc(NC(=O)N2CCC3(CC2)C(=O)N(c2ccccc2)C3c2ccccc2)cc1` (centres unmarked) the same measures were 98 nM and 81 nM.
`O=C(Nc1ccc(C(F)(F)F)cn1)N1CCC2(CC1)C(=O)N(c1ccccc1)C2c1ccccc1` (centres unmarked): the half-maximal inhibitory concentration (IC50) at TRPV1 (VR1) [1] is 315 nM; at TRPV1 (VR1) [2], 205 nM.
In the case of `CC(C)c1ccc(NC(=O)N2CCC3(CC2)CN(c2ccccc2)C3=O)cc1`, the IC50 worked out at 504 nM on TRPV1 (VR1) [1] and 5 nM at TRPV1 (VR1) [2].
The Ki is a measure of affinity in units of concentration, obtained from inhibition or displacement. A lower Ki goes with tighter binding. For `O=C(Nc1c(Cl)cccc1Cl)N1CCC2(CC1)C(=O)N(c1ccccc1)C2c1ccccc1` (centres unmarked), the values for the inhibition constant (Ki) on NPC1L1 and on human NPC1L1 were 1520 nM and 2120 nM, respectively.
On to `Cc1cccc(Cl)c1NC(=O)N1CCC2(CC1)C(=O)N(c1ccc(F)cc1)C2c1ccc(Cl)cc1` (centres unmarked), for which the inhibition constant Ki at NPC1L1 came to 5950 nM; on human NPC1L1 it was 10100 nM.
For `O=C(Nc1c(Cl)cccc1Cl)N1CCC2(CC1)C(=O)N(c1ccc(F)cc1)C2c1ccc(Cl)cc1` (centres unmarked) the same measures were 4840 nM and 6410 nM.
Consider `O=C(Nc1ccc(C(F)(F)F)cc1)N1CCC2(CC1)C(=O)N(c1ccccn1)C2c1ccccc1` (single isomer, unassigned), for which the IC50 at TRPV1 (VR1) [1] and on TRPV1 (VR1) [2] was 7 nM throughout.
For `CC(C)(C)c1ccc(NC(=O)N2CCC3(CC2)C(=O)N(c2ccccc2)C3c2ccccc2)cc1` (single isomer, unassigned), the IC50 is 9 nM on TRPV1 (VR1) [1] and 12 nM at TRPV1 (VR1) [2].
`CC(C)(C)C1CCC(NC(=O)N2CCC3(CC2)C(=O)N(c2ccccc2)C3c2ccccc2)CC1` (single isomer, unassigned): the half-inhibitory concentration (IC50) at TRPV1 (VR1) [1] is 48 nM; on TRPV1 (VR1) [2], 31 nM.
For `CC(C)(C)C1CCC(NC(=O)N2CCC3(CC2)CN(c2ccccc2)C3=O)CC1` (single isomer, unassigned) the same measures were 84 nM and 123 nM.
`O=C(Nc1cccc(C(F)(F)F)c1)N1CCC2(CC1)C(=O)N(c1ccc(F)c(Cl)c1)C2c1ccccn1` (centres unmarked) [drawing 660]: the “rat VR1 % activation @ 3.3 ug/ml compound” value at rat VR1 amounted to 98%.
Regarding `O=C(Nc1cccc(C(F)(F)F)c1)N1CCC2(CC1)C(=O)N(c1cncc(Cl)c1)C2c1ccccn1` (centres unmarked) [drawing 661], the “rat VR1 % activation @ 3.3 ug/ml compound” value on rat VR1 turned out to be 61%.
In the case of `N#Cc1cc(F)cc(NC(=O)N2CCC3(CC2)C(=O)N(c2ccc(F)c(Cl)c2)C3c2ccccn2)c1` (centres unmarked) [drawing 662], the “rat VR1 % activation @ 3.3 ug/ml compound” value on rat VR1 was 67%.
On to `N#Cc1cccc(N2C(=O)C3(CCN(C(=O)Nc4cccc(C(F)(F)F)c4)CC3)C2c2ccccn2)c1` (centres unmarked) [drawing 663], for which the “rat VR1 % activation @ 3.3 ug/ml compound” value at rat VR1 turned out to be 61%.
On the same count and under the same terms, the figure for `O=C(Nc1cc(F)cc(F)c1)N1CCC2(CC1)C(=O)N(c1cccc(Cl)c1)C2c1cccnc1` (centres unmarked) [drawing 664] is 75%.
